{"source": "patent US20200179296A1", "about": "“Accelerated Clearance of Biologic Therapeutics Using Click-Antidotes” (The Regents of the University of Colorado, a body corporate, priority 2018, published 2020)", "key": {"[1]": {"experiment": "Size and zeta potential of the antidotes (Zetasizer Nano ZS), particle concentration", "type": "physicochemical", "description": "Synthesis of CLIO and CLIO NWs: CLIO NWs were synthesized from native 20 kDa dextran (Sigma) whereas CLIO were synthesized from reduced T-10 (10 k Da) dextran (Pharmacosmos). Dextran, Fe (III) chloride and Fe (II) chloride were mixed in DDW and titrated with ammonia using a modified Molday precipitation method. The ratio between dextran and iron salts determined the final size of the nanoparticles. Excess dextran was removed with ultrafiltration and the particles were crosslinked with epichlorohydrin as described. Excess epichlorohydrin was removed with ultrafiltration and particles were aminated by addition of ammonium hydroxide (CLIO NWs) or diaminohexane (CLIO) overnight at 4° C. […] Size and zeta potential were determined using Zetasizer Nano ZS (Malvern Instruments Ltd, Malvern, UK). […] The amino group content was determined by reaction with Cy7-NHS. […] The amount of the reacted dye was determined by the difference in the supernatant fluorescence between the reaction tube and control tube (no particles). The number of amines per nanoparticle was determined to be ˜100,000 per CLIO and CLIO NW.\nBSA-TCO size and zeta potential are similar to those of native BSA values reported in literature. Particle concentration of BSA was determined based on Mw of 67 kDa; CLIO and CLIONW concentration was determined as described before. […]"}, "[2]": {"experiment": "Elimination profile and organ distribution of NIR-labeled antidotes after i.v. injection", "type": "in vivo", "conditions": "female BALB/c mice", "description": "FIGS. 1A-1F show the antidotes used in the study. […] The nanocarriers were modified with click groups (DSPE-PEG3400 with MTZ, BSA with TCO, CLIO NW and CLIO with TCO) as described in Methods. […] Crosslinked dextran shell is not visible. Size bar=50 nm. FIGS. 1C-1F show the elimination profile of the antidotes and organ distribution (NIR images). Labels are as follows: k-kidney, s-spleen, Iv-liver, i-intestine, lu-lung, h-heart). DSPE-PEG-MTZ, BSA-TCO and CLIO NW-TCO are long circulating particles, whereas CLIO-TCO are short circulating particles. […] N=3 mice per group.\nFemale BALB/c mice 6-8 weeks old were used for the experiments and bred in house. In order to determine circulation half-life of NIR-labeled antibodies and antidotes, 2 μL blood were collected at different time points through retroorbital vein or mandibular vein and were applied in duplicates on a 0.22 μm nitrocellulose membrane and scanned at 800 nm using Li-COR Odyssey. The spot integrated density of a 16-bit TIFF image was measured with ImageJ and plotted as a function of time. The fluorescence of dots at initial time point was used as 100%. […] Mean fluorescence was determined from 16-bit images using ImageJ software by subtracting the background, drawing a ROI around the organs, and using a measure function to determine mean gray value. […]"}, "IRDye 800CW-labeled IgG [3]": {"test_system": "IRDye 800CW-labeled IgG", "experiment": "In vivo depletion of blood IgG by click-modified antidotes", "set-up": "species or system BALB/c mice", "procedure": "Blood IgG levels were measured at different time points, up to 72 h post injection. […] Black line is “IgG only”, green line is “IgG+antidote”. Time of IgG injection is “0” on the X-axis. The antidotes were injected at different times after IgG injection as marked by red arrows. First blood draw was at 1 h post-IgG injection (100%). The IgG only (control) group was included in every experiment. […] Two tailed t-test, n=3 mice per group.\nFemale BALB/c mice 6-8 weeks old were used for the experiments and bred in house. In order to determine circulation half-life of NIR-labeled antibodies and antidotes, 2 μL blood were collected at different time points through retroorbital vein or mandibular vein and were applied in duplicates on a 0.22 μm nitrocellulose membrane and scanned at 800 nm using Li-COR Odyssey. The spot integrated density of a 16-bit TIFF image was measured with ImageJ and plotted as a function of time. The fluorescence of dots at initial time point was used as 100%. For organ distribution, mice were euthanized at 48-72 h post injection and the organs were placed in wells on a 12-well plate. Organs were scanned with Li-COR Odyssey at 800 nm. Mean fluorescence was determined from 16-bit images using ImageJ software by subtracting the background, drawing a ROI around the organs, and using a measure function to determine mean gray value.\nIn order to test the depletion efficiency of the antidotes, female BALB/c mice were injected with 25 μg IRDye 800CW-labeled IgG followed by PBS (control) or the antidote, and the levels of IgG in blood (both antidote-bound and free) were measured at different times post-IgG injection (FIG. 2A). […] To test the ability of DSPE-PEG-MTZ to decrease total blood levels of IgG (both antidote bound and free), mice were injected with IRDye 800CW-IgG-TCO followed 1.5 h later with the lipid (1 mg, 1660-fold molar excess of MTZ groups). […] To test the depletion efficiency of BSA-TCO, we injected mice with 25 μg of IgG-MTZ followed by BSA-TCO at 2 h and 3 h post-IgG injection (500 μg each; ˜400 fold excess of TCO; 92-fold excess of surface-binding capacity). […] In view of the large excess of the injected lipid and BSA over IgG, it is unlikely that insufficient binding capacity is responsible for the observed difference in the depletion efficiency of these antidotes. To further investigate which factors contribute to the depletion efficiency, CLIO-TCO and CLIO NW-TCO were compared that have similar sizes but different blood half-lives (FIGS. 2E, 2F). […] It was also confirmed that CLIO-TCO specifically binds to IgG via click chemistry (FIG. 11B), which confirms that the observed decrease in IgG blood fluorescence was due to depletion."}, "IRDye 800CW-labeled IgG [4]": {"test_system": "IRDye 800CW-labeled IgG", "experiment": "Organ distribution of IgG fluorescence in control and antidote-injected groups", "type": "in vivo, BALB/c mice", "conditions": "48-72 h after antidote injection", "description": "Graphs show mean gray value of fluorescence scans, images show colored images in 800 nm channel. Organs were scanned in […]; each organ's image corresponds to the bar graph below; representative images are shown. The signal represents both circulating IgG and organ-deposited IgG. Brightness and contrast were adjusted to the same extent in control and treated groups of the same experiment. Due to scanner settings, antibody batch and time when the experiment was terminated, the grey values show differences between experiments. 2-way ANOVA test with multiple comparisons, n=3 mice per group. Means and SD of experimental replicates are shown\nFemale BALB/c mice 6-8 weeks old were used for the experiments and bred in house. […] The spot integrated density of a 16-bit TIFF image was measured with ImageJ and plotted as a function of time. The fluorescence of dots at initial time point was used as 100%. […] Mean fluorescence was determined from 16-bit images using ImageJ software by subtracting the background, drawing a ROI around the organs, and using a measure function to determine mean gray value.\nTo study the depletion in the peripheral organs, the main organs were scanned 48-72 h after the antidote injection with Li-COR Odyssey NIR scanner. The mean fluorescence reflects both the deposited IgG and the circulating IgG (either free or antidote-bound). […]"}}}
{"substance": "BSA-TCO: bovine serum albumin conjugated with TCO-PEG4-NHS ester; macromolecule-based click antidote", "values": [{"measurement": "Particles per mg", "setting": "[1]; BSA based on Mw of 67 kDa", "value": "9 × 10^12 per mg"}, {"measurement": "Diameter", "setting": "[1]; hydrodynamic diameter, intensity-weighted distribution", "value": 8, "unit": "nm"}, {"measurement": "Organ accumulation of the antidote", "setting": "[2]; NIR organ images", "value": "significant accumulation in the lungs"}, {"measurement": "Elimination half-life (slow phase)", "setting": "[2]; i.v., blood", "value": 4, "unit": "h"}, {"measurement": "Decrease in blood level of IgG at 3 h post-IgG injection vs control", "setting": "IRDye 800CW-labeled IgG [3]; 25 μg IgG-MTZ, BSA-TCO 500 μg at 2 h and 3 h, CLIO-TCO 290 μg at 1 h", "value": 40, "unit": "%"}, {"measurement": "Decrease in blood level of IgG at 24 h post IgG injection vs control", "setting": "IRDye 800CW-labeled IgG [3]; 25 μg IgG, DSPE-PEG-MTZ 1 mg, BSA-TCO 2 x 500 μg, CLIO-TCO 290 μg", "value": 53, "unit": "%"}, {"measurement": "Decrease in AUC24 h of blood IgG vs control, 3 injections of antidote", "setting": "IRDye 800CW-labeled IgG [3]; BSA-TCO 500 μg at 1.5, 3, 23 h, CLIO-TCO 150 μg at 2, 3, 4 h post-IgG", "value": 38, "unit": "%"}, {"measurement": "Decrease in AUC24 h of blood IgG vs control", "setting": "IRDye 800CW-labeled IgG [3]; DSPE-PEG-MTZ 1 injection 1 mg, BSA-TCO 2 injections 500 μg each, CLIO-TCO 1 injection 290 μg", "value": 41, "unit": "%"}, {"measurement": "Effect on IgG fluorescence in the liver", "setting": "IRDye 800CW-labeled IgG [4]", "value": "increased the liver fluorescence"}, {"measurement": "Effect on IgG fluorescence in the organs", "setting": "IRDye 800CW-labeled IgG [4]; Li-COR 800 nm", "value": "did not decrease the level of fluorescence in other organs"}]}
